Measured values: article PMC9011347, “Small-Molecule Inhibitors Targeting Lipolysis in Human Adipocytes” (Journal of the American Chemical Society, 2022)
pIC50: −log10 of the molar value. Where “and” joins values, the source holds several entries; their conditions need not be identical. Identical values can stand only once. Like-named read-outs stand apart in the source and are kept apart here.

Experiments:
mouse ATGL (aa 1–288) = target: T1, mouse ATGL (aa 1–288) (Mus musculus, UniProt Q8BJ56); assay: TAG hydrolase assay, wild-type and chimeric ATGL variants; type: biochemical; conditions: wild-type mouse ATGL (aa 1–288)
T1 construct: mouse ATGL (aa 1–288); host or cells: Expi293 cells, crude lysate
Excerpt: Since experimental three-dimensional (3D) structures for ATGL are currently not available, we utilized chimeric variants of mouse and human ATGL for the identification of binding sites. The constructs c1–c9 (Figure 5a) comprised the N-terminal […] of ATGL, which are sufficient to retain enzymatic activity.[50] In variants c1 and c2, exchange of the N-terminal 158 aa between human and mouse ATGL switched inhibitor reactivity.
Figure 5 Analysis of chimeric proteins comprising human and mouse ATGL. (a) Schematic view of the minimal active domain of wild-type and chimeric ATGL variants (c1–c9). Nonidentical aa are indicated in blue and red for mouse and human ATGL, respectively. ATGL variants were expressed in Expi293 cells and TAG hydrolase activity was determined in cell lysates in the presence or absence of NG-497 (10 μM) and Atglistatin (10 μM), respectively. Inhibition of ATGL variants by respective inhibitors (tick mark) and lack of inhibition (cross) is indicated at the right edge. The expression of all ATGL variants was confirmed by Western blotting analysis (Figure S6). […]
Expression of recombinant ATGL constructs and preparation of cell lysates. […] Protein concentrations were determined using Bio-Rad protein assay (Bio-Rad 785, Bio-Rad Laboratories, Munich, Germany) using BSA as standard. […]

[1] = test system: primary human omental adipocytes; assay: Lipolysis in human omental adipocytes; type: cell-based; conditions: NG-497 40 µM
Procedure: Fig. S5: Effect of NG-497 on lipolysis in human omental adipocytes. Omental preadipocytes were obtained from Zen-Bio and differentiated into adipocytes in 96-well trays according to the manufacturer's instructions (OP-F-SL, ZenBio). Cells were then labeled with [9,10-3H] oleic acid (1µCi/well) in full medium for 12 h, washed, and preincubated for 1 h with NG-497 (40 µM) or DMSO (carrier) as a control. Subsequently, the medium was replaced with DMEM containing 2% FA-free BSA and basal as well as Forskolin-stimulated release of radioactivity was monitored in the presence or absence of NG-497. After a 4 h incubation period, cells were lysed in NaOH/SDS (0.3 M/0.1%) and cell-associated radioactivity was determined by liquid scintillation.
Cell-associated radioactivity at time-point 0 (pulse) was calculated as sum of the radioactivity detected in medium and cells after the 4 h chase. The release of fatty acids is shown as % of cell-associated radioactivity.
In the presence of Forskolin, cells lost ~ 20% of the
(b) Time course of FA release during the 4 h chase period. NG-497 reduced basal lipolysis by ~50% and extinguished Forskolin-stimulated lipolysis. Data are presented as mean ± S.D (n = 4). Statistical significance was determined via ANOVA followed by Bonferroni post hoc test (***, p < 0.001).
(1 picture or pasted object on this page, not shown here)

T1 sequence (Q8BJ56 1-288): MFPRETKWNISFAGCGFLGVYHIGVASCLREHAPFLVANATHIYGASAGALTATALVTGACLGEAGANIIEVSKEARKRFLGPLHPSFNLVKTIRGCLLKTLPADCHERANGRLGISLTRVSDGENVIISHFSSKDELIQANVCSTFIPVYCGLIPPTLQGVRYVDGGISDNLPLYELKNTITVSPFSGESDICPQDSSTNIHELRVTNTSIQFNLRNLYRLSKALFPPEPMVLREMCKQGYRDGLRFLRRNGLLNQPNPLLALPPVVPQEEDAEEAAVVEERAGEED

Row | SMILES | pIC50 (mouse ATGL (aa 1–288); read-out: IC50) | IC50 (mouse ATGL (aa 1–288)) | Forskolin-induced loss of cell-associated radiolabel (~ 20%) ([1]; 4 h) | Forskolin-induced TAG degradation and FA release (Forskolin-stimulated lipolysis) ([1]; 4 h chase) | reduction of basal lipolysis ([1]; 4 h chase)
1 | CN(C)C(=O)Nc1cccc(-c2ccc(N(C)C)cc2)c1 [Atglistatin, reference compound] | ~5.60 and 5.60 |  |  |  | 
2 | CCOc1ccc(-c2cc(OC)cc(C(=O)OC(C)C)n2)cc1 [NG-497] |  | ineffective | completely prevented | extinguished | ~ 50%
